Twelve compounds from patent US8053577B2, “Derivatives of 5,9-methanocycloocta[b]pyridin-2-(1H)-one, their preparation and use as analgesics” (priority 2006, dated 2011) can be followed below.

Data set [1] can be described thus: Acute toxicity (LD50) in mice. As to conditions: mouse, in vivo, oral administration. The text has this: In view of the above-described problems, this invention relates to a series of analgesic 5,9-methanocycloocta[b]pyridin-2(H)-one derivatives.
The compounds of Formula I release huperzine A after p.o. administration. The amount of huperzine A released in artificial gastric fluid at various time intervals after administration of (5R,9R,11E)-5-(3-phenylprop-2-en-1-ylideneamino)-11-ethylidene-5,6,9,10-tetrahydro-7-methyl-5,9-methanocycloocta[b]pyridin-2(1H)-one is listed in Table 2. […] Accordingly, (5R,9R,11E)-5-(3-phenylprop-2-en-1-ylideneamino)-11-ethylidene-5,6,9,10-tetrahydro-7-methyl-5,9-methanocycloocta[b]pyridin-2(1H)-one is a pro-drug of huperzine A, and releases huperzine A in a sustained fashion. Sustained release of huperzine A can well explain lower toxicity of compounds of Formula I compared with Huperzine A (see Table 1).

The subject of another data set is mice. Put plainly: Analgesic effect of intragastric administration on mice measured with hot-plate test. It is filed as in vivo, ICR mice. Conditions: x ± s, n = 10; for pain-threshold after administration / pain-threshold before administration: time course; for pain-threshold before administration / pain threshold before administration: baseline; for pain threshold after administration / pain threshold before administration: Table 3 screening; for pain threshold after administration: 1 hour; for pain threshold before administration: group dosed 0.6 mg/kg intragastric. The protocol:
The analgesic effect with a single dose of the compounds represented by Formula I is preliminarily screened at single time point through hot-plate test, with fortanodyn and aspirin as positive controls. All of the compounds are administered intragastrically.
On the basis of preliminary screening results, several representative compounds were selected to test their analgesic duration, and a part of the results is listed in Table 4. The results illustrate that the analgesic duration of most compounds is longer than 2 hours after a single oral administration, and that some of the compounds have analgesic duration lasting longer than 4 hours.
Furthermore, the dose-effect relationship on an analgesic model of two compounds was tested and the results are shown in Table 5.
Analgesic effect of intragastric administration on mice measured with hot-plate test
Female ICR mice, weight 20+2 g, were purchased from Department of Laboratory Animal Science, Beijing University, animal license number: SCXK 2002-0001.
A) Samples: samples were prepared as mixtures with 0.9% NaCl solution for intragastric administration to mice.
B) Fortanodyn: 30 mg/pill (TianJin LiSheng Pharmaceutical Co. Ltd, lot number: 0201001), 1.5 mg/mL solution was prepared with 0.9% NaCl solution for intragastric administration to mice.
1) Hot-plate test on mice was employed. A thermostatic water bath was adjusted at 55±0.5° C., the bottom of metal plates contacted water surface and used as stimuli after heating. The time span(s) from the point when the mouse was placed onto the hot-plate to the time when the mouse started to lick its metapedes was determined as its pain threshold, which was recorded by stopwatch. Female mice with a weight of 20±2 g were used. The pain threshold of every mouse was measured twice before administration, and the qualified mice are the ones whose average pain threshold was less than 30 seconds.
The qualified mice were randomly grouped with 10 mice in each group. The pain threshold before administration was determined as the basic pain threshold. To the medication administration team, drugs of different dose were given through intragastric administration, whereas to the control group, 0.9% NaCl solution was given. The administration volume was 0.2 mL for every 10 g body weight. The pain threshold of each group was measured at 1 hour after administration.
After administration the pain threshold of each group at different time was measured. The experimental data was statistically treated with t-test using SPSS10 statistics software.
(Thermal pain tests record how soon the animal reacts.)

Regarding `C/C=C1\[C@H]2C=C(C)C[C@]1(/N=C/C=C/c1ccc(Cl)cc1)c1ccc(=O)[nH]c1C2` [Example 14, (5R,9R,11E)-5-(3-(4-chlorophenyl)prop-2-en-1-ylideneamino)-11-ethylidene-5,6,9,10-tetrahydro-7-methyl-5,9-methanocycloocta[b]pyridin-2(1H)-one], the 50% lethal dose (LD50) (commonly the dose expected to kill half of the subjects tested) in data set [1] stood at 35.6 mg/kg. Moreover, the pain-threshold after administration with mice (0.81 mg/kg intragastric, 30 min) turned out to be 47.9 ± 12.95 s; in the data set with mice (0.81 mg/kg intragastric, 60 min), 45.9 ± 15.42 s; in the data set with mice (0.81 mg/kg intragastric, 120 min) it was 31.0 ± 12.04 s; with mice (0.81 mg/kg intragastric, 180 min), 25.1 ± 8.10 s; in the data set on mice (0.81 mg/kg intragastric, 240 min) it was 26.2 ± 9.69 s. Also, the pain-threshold before administration in the data set with mice (group dosed 0.81 mg/kg intragastric) is 12.6 ± 4.25 s.

As for `C/C=C1\C2C=C(C)CC1(/N=C/C=C/c1cccc3ccccc13)c1ccc(=O)[nH]c1C2` [Example 23, (5R,9R,11E)-5-(3-(naphthalen-1-yl)prop-2-en-1-ylideneamino)-11-ethylidene-5,6,9,10-1,7-dimethyl-5,9-methanocycloocta[b]pyridin-2(1H)-one], the LD50 in data set [1] amounted to 43.2 mg/kg. For the same compound, the pain-threshold after administration in the data set with mice (0.84 mg/kg intragastric, 30 min) is recorded as 23.3 ± 7.45 s; with mice (0.84 mg/kg intragastric, 60 min) it was 28.1 ± 10.15 s; with mice (0.84 mg/kg intragastric, 120 min), 14.9 ± 5.02 s; in the data set with mice (0.84 mg/kg intragastric, 180 min), 13.7 ± 2.98 s. In the data set on mice (group dosed 0.84 mg/kg intragastric), this compound came in with a pain-threshold before administration of 12.3 ± 3.86 s.

In data set [1], `C/C=C1\[C@H]2C=C(C)C[C@]1(/N=C/C=C/c1ccccc1)c1ccc(=O)[nH]c1C2` [Example 2, (5R,9R,11E)-5-(3-phenylprop-2-en-1-ylideneamino)-11-ethylidene-5,6,9,10-tetrahydro-7-methyl-5,9-methanocycloocta[b]pyridin-2(1H)-one] had an LD50 of 26.5 mg/kg. The pain-threshold after administration in the data set with mice (0.73 mg/kg intragastric, 30 min) was determined as 34.0 ± 11.42 s; with mice (0.73 mg/kg intragastric, 60 min) it was 36.5 ± 10.91 s; in the data set with mice (0.73 mg/kg intragastric, 120 min), 29.0 ± 7.83 s; in the data set on mice (0.73 mg/kg intragastric, 180 min), 24.0 ± 5.44 s; in the data set with mice (0.73 mg/kg intragastric, 240 min) it was 18.3 ± 5.31 s.

As for `C/C=C1\[C@H]2C=C(C)C[C@]1(N=CC(Br)=Cc1ccccc1)c1ccc(=O)[nH]c1C2` [Example 10, (5R,9R,11E)-5-(2-bromo-3-phenylprop-2-en-1-ylideneamino)-11-ethylidene-5,6,9,10-tetrahydro-7-methyl-5,9-methanocycloocta[b]pyridin-2(1H)-one], the “pain threshold after administration” value in the data set with mice (0.6 mg/kg intragastric) came out at 21.0 ± 3.16 s. In addition, the “pain threshold before administration” value with mice was found to be 11.8 ± 3.54 s.

`C/C=C1\C2C=C(C)CC1(/N=C\c1ccc(/C=C/C=N/C34CC(C)=CC(Cc5[nH]c(=O)ccc53)/C4=C\C)cc1)c1ccc(=O)[nH]c1C2` (stereo not shown) [Example 27]: in the data set with mice (0.6 mg/kg intragastric), the “pain threshold after administration” value came out at 21.2 ± 5.53 s. The “pain threshold before administration” value in the data set on mice is 12.4 ± 3.14 s.

`C/C=C1\[C@H]2C=C(C)C[C@]1(/N=C/C=C/C=C/c1ccccc1)c1ccc(=O)[nH]c1C2` [Example 8, (5R,9R,11E)-5-(5-phenylpenta-2,4-dien-1-ylideneamino)-11-ethylidene-5,6,9,10-tetrahydro-7-methyl-5,9-methanocycloocta[b]pyridin-2(1H)-one]: in the data set on mice (0.6 mg/kg intragastric), the “pain threshold after administration” value stood at 23.0 ± 3.52 s.

As to `CC(=O)Oc1ccccc1C(=O)O` [Aspirin, reference compound], the “pain threshold after administration” value in the data set on mice (100 mg/kg intragastric) worked out at 18.2 ± 3.71 s. Further, the pain-threshold after administration with mice (100 mg/kg intragastric, 30 min) was 18.1 ± 5.40 s; with mice (100 mg/kg intragastric, 60 min) it was 18.0 ± 3.80 s; in the data set with mice (100 mg/kg intragastric, 120 min), 14.0 ± 3.63 s; in the data set with mice (100 mg/kg intragastric, 180 min) it was 14.3 ± 3.62 s.

Regarding `C/C=C1\[C@H]2C=C(C)C[C@]1(/N=C/C=C/c1ccc(Br)cc1)c1ccc(=O)[nH]c1C2` [Example 13, (5R,9R,11E)-5-(3-(4-bromophenyl)prop-2-en-1-ylideneamino)-11-ethylidene-5,6,9,10-tetrahydro-7-methyl-5,9-methanocycloocta[b]pyridin-2(1H)-one], the “pain threshold after administration” value in the data set on mice (0.6 mg/kg intragastric) stood at 22.0 ± 4.86 s.

`C/C=C1\[C@H]2C=C(C)C[C@]1(N=CC=Cc1ccncc1)c1ccc(=O)[nH]c1C2` [Example 20, (5R,9R,11E)-5-(3-(pyridin-4-yl)prop-2-en-1-ylideneamino)-11-ethylidene-5,6,9,10-tetrahydro-7-methyl-5,9-methanocycloocta[b]pyridin-2(1H)-one]: in the data set with mice (0.6 mg/kg intragastric), the “pain threshold after administration” value is 25.0 ± 5.18 s. Moreover, in the data set with mice, the “pain threshold before administration” value stood at 12.6 ± 2.42 s.

Regarding `C/C=C1\[C@H]2C=C(C)C[C@]1(/N=C/C=C/c1ccccc1Cl)c1ccc(=O)[nH]c1C2` [Example 16, (5R,9R,11E)-5-(3-(2-chlorophenyl)prop-2-en-1-ylideneamino)-11-ethylidene-5,6,9,10-tetrahydro-7-methyl-5,9-methanocycloocta[b]pyridin-2(1H)-one], the “pain threshold after administration” value in the data set with mice (0.6 mg/kg intragastric) is listed as 27.4 ± 5.16 s. For the same compound, the “pain threshold before administration” value in the data set with mice is 13.2 ± 3.76 s.

On to `C/C=C1\[C@H]2C=C(C)C[C@]1(/N=C/C=C/c1cccc(C)c1)c1ccc(=O)[nH]c1C2` [Example 4, (5R,9R,11E)-5-(3-(3-methylphenyl)prop-2-en-1-ylideneamino)-11-ethylidene-5,6,9,10-tetrahydro-7-methyl-5,9-methanocycloocta[b]pyridin-2(1H)-one], for which the “pain threshold after administration” value in the data set on mice (0.6 mg/kg intragastric) is listed as 27.0 ± 5.40 s. Besides, the “pain threshold before administration” value in the data set on mice is given as 12.2 ± 3.31 s.

Regarding `C/C=C1\[C@H]2C=C(C)C[C@]1(N)c1ccc(=O)[nH]c1C2` [Example 1, (5R,9R,11E)-5-amino-11-ethylidene-5,6,9,10-tetrahydro-7-methyl-5,9-methanocycloocta[b]pyridin-2(1H)-one, reference compound], the LD50 in data set [1] stood at 3.8 mg/kg.
